Results as given in PubChem BioAssay (NCI).
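Interpolation was linear, between the two tested concentrations surrounding the appropriate level; five concentrations were tested over 48 hours in 96-well plates. GI50 marks 50% less growth. TGI is the concentration that stops growth completely.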

Legend:
Assay in all cases: growth of human tumour cells (NCI), 48 h
[1] = system: UO-31 renal
[2] = system: TK-10 renal
[3] = system: SF-295 CNS
[4] = system: SF-268 CNS
[5] = system: NCI-H226 lung
[6] = system: HT29 colon
[7] = system: U251 CNS
[8] = system: SK-MEL-2 melanoma

Structure (SMILES)	GI50 [1]	TGI [1]	GI50 [2]	TGI [2]	GI50 [3]	TGI [3]	GI50 [4]	TGI [4]	GI50 [5]	TGI [5]	GI50 [6]	TGI [6]	GI50 [7]	TGI [7]	GI50 [8]	TGI [8]
COc1cc(C2NC(=O)C(C#N)=C(Nc3cccc(C)c3)S2)ccc1O (stereo not drawn)	> 100 µM	> 100 µM	> 100 µM	> 100 µM	> 100 µM	> 100 µM	> 100 µM	> 100 µM	> 100 µM	> 100 µM	> 100 µM	> 100 µM	> 100 µM	> 100 µM	> 100 µM	> 100 µM
COC(=O)c1cc2cc(/C=C3/SC(=S)N(N(C(C)=O)C(C)=O)C3=O)oc2n1Cc1ccccc1	29.7 µM	> 100 µM	17.4 µM	35.1 µM	13.2 µM	52.4 µM	48.2 µM	> 100 µM	21.9 µM	45.2 µM	37.4 µM	> 100 µM	12.8 µM	30.8 µM	40.3 µM	> 100 µM
O=C(C(=CN1CCN(C(=O)c2ccco2)C1=S)C(=O)c1ccccc1)c1ccccc1	8.71 µM	18.7 µM	6.87 µM	22.1 µM	11.1 µM	33 µM					16.9 µM	> 50 µM	2.66 µM	25.8 µM	12.1 µM	25.6 µM
O=C1Cc2cc(CCN3CCNCC3)c(Cl)cc2N1					4.2 µM	> 100 µM	12.7 µM	> 100 µM	> 100 µM	> 100 µM	> 100 µM	> 100 µM	7.79 µM	> 100 µM	15.2 µM	> 100 µM
CN(CCCCCl)P(=O)(OCc1ccc([N+](=O)[O-])o1)OCC1OC(n2cc([N+](=O)[O-])c(=O)[nH]c2=O)CC1O (stereo not drawn)	> 100 µM	> 100 µM	> 100 µM	> 100 µM	49.8 µM	> 100 µM	3 µM	> 100 µM	42.3 µM	> 100 µM	> 100 µM	> 100 µM	> 100 µM	> 100 µM	> 100 µM	> 100 µM
COc1ccc(C(O)c2ccccn2)cc1 (stereo not drawn)				> 100 µM		> 100 µM		> 100 µM		> 100 µM		> 100 µM		> 100 µM		> 100 µM
CN1CCN(c2ccc(NC3=CC(=O)c4ncncc4C3=O)cc2)CC1	0.27 µM	0.761 µM	2.01 µM	3.81 µM	0.511 µM	1.66 µM	1.77 µM	5.73 µM	1.51 µM	3.47 µM	1.72 µM	5.98 µM	0.722 µM	1.94 µM	1.54 µM	3.45 µM
NS(=O)(=O)c1ccc(N=Nc2c[nH]c(=O)c(O)c2)cc1		> 100 µM		> 100 µM		> 100 µM		> 100 µM		> 100 µM		> 100 µM		46.3 µM		> 100 µM
